For this experiment, the target named is T1, P450TEC (Homo sapiens, UniProt Q7Z449).
T1 construct: One of 5 clones contained a putative full length cytochrome, which we have named P450TEC; made in house; host or cells: Sf9 insect cells, recombinant baculovirus (pVL1392 transfer vector); microsomal fraction
T1 sequence (Q7Z449 1-544): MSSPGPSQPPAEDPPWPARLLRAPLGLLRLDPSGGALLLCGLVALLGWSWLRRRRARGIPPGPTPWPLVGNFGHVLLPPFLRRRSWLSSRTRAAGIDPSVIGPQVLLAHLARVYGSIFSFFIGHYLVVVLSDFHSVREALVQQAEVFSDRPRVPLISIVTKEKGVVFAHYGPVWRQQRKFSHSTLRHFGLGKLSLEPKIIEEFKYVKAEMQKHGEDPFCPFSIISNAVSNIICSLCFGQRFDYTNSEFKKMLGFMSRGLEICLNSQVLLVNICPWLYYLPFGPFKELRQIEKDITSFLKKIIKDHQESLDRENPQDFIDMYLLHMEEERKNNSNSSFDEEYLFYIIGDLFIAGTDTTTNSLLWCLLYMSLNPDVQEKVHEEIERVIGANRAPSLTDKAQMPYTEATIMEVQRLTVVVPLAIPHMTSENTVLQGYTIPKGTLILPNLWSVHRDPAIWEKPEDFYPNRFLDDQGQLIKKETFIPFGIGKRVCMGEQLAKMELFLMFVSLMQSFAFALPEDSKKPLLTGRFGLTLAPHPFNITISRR
In words: Arachidonic acid metabolism by baculovirus-Sf9-expressed P450TEC microsomes (HPLC, LC-MS). Format: biochemical. On the procedure: Cultured Sf9 insect cells expressing recombinant P450TEC were harvested 3 days after infection, washed twice with phosphate buffered saline (PBS) and resuspended in lysis buffer (100 mM Tris-HCl, pH 7.4, 1 mM EDTA, 0.5 M sucrose) containing protease inhibitor cocktail (Roche Diagnostics GmbH, Mannheim, Germany, 1 tablet per 10 ml lyses buffer). Cells were disrupted by brief sonication (5-8 bursts of 5 seconds duration) on ice using 550 Sonic Dismembrator (Fisher Scientific, Canada). The resulting cell lysates were successively centrifuged, at 800g, and 10,000g for 10 min each time at 4° C. Microsomal fractions from the 10,000g supernatants were pelleted by centrifugation at ˜1 00,000g for 60 min at 4° C. The pellet was then resuspended in microsomes storage buffer (10 mM Tris-HCl, pH 7.4, 5 mM MgCl2, 1mM EDTA, 150 mM KCI and 10% glycerol) and stored at −70° C. […]
For MS and MS/MS analyses of arachidonic acid metabolites, 5 μM of unlabeled arachidonic acid was incubated for 60 min. […] Similarly, ethyl acetate extracts from microsomal incubations without arachidonic acid was also processed and analyzed by LC-MS. […]

Take `CCCCCC=CCC=CCC=CCC=CCCCC(=O)O` [arachidonic acid, 5,8, 11, 14-eicosatetraenoic acid]: the “linearity of arachidonic acid metabolite formation with time” value (5 μM [1-14C] arachidonic acid, NADPH-CYP oxidoreductase+b5 and NADPH, 15, 30 and 60 min) is on record as “directly porportional to time of incubation”. For the same compound, where the note is “P450TEC microsomes, NADPH, 1 or 20 μM [1-14C] arachidonic acid, 60 min, 37° C.”, the “metabolite formed from arachidonic acid by P450TEC” value is reported as “monohydroxylated arachidonic acid”.

The values above are taken from patent publication US20030190642A1, “Thymus expressed human cytochrome p450(p450tec)” (priority 2003, published 2003).
